The source of these data is publication PMC5218480 (PLoS ONE, 2017).

In this test the test system is MV-4-11 cells. Kind of test: Gene expression microarray analysis (Affymetrix PrimeView) and GSEA. Format: cell-based, human. Further details: RFU PODN (11730768_x_at) / Fold change /veh PODN (11730768_x_at) / RFU LINC00158 (11744669_a_at) / Fold change /veh LINC00158 (11744669_a_at) / RFU DUSP10 (11751237_a_at) / Fold change /veh DUSP10 (11751237_a_at) / RFU ID3 (11757404_x_at) / Fold change /veh ID3 (11757404_x_at) / RFU PLEKHG5 (11737974_s_at) / Fold change /veh PLEKHG5 (11737974_s_at) / RFU LRRC4B (11730491_at) / Fold change /veh LRRC4B (11730491_at) / RFU GIMAP4 (11747438_a_at) / Fold change /veh GIMAP4 (11747438_a_at) / RFU KRT8 (11758183_x_at) / Fold change /veh KRT8 (11758183_x_at) / RFU CNN1 (11734310_a_at) / Fold change /veh CNN1 (11734310_a_at) / RFU VPS37D (11726825_at) / Fold change /veh VPS37D (11726825_at) / RFU C10orf10 (11716522_x_at) / Fold change /veh C10orf10 (11716522_x_at) / RFU KIR2DL2 /// KIR2DL4 /// KIR2DL5A /// KIR2DL5B /// KIR2DS1 /// KIR2DS2 /// KIR2DS3 /// KIR2DS4 /// KIR3DL3 /// KIR3DL3 /// KIR3DS1 (11738374_at) / Fold change /veh KIR2DL2 /// KIR2DL4 /// KIR2DL5A /// KIR2DL5B /// KIR2DS1 /// KIR2DS2 /// KIR2DS3 /// KIR2DS4 /// KIR3DL3 /// KIR3DL3 /// KIR3DS1 (11738374_at) / RFU C1QL1 (11718748_at) / Fold change /veh C1QL1 (11718748_at) / RFU TMPRSS4 (11747572_a_at) / Fold change /veh TMPRSS4 (11747572_a_at) / RFU HAMP (11756126_x_at) / Fold change /veh HAMP (11756126_x_at) / RFU RNFT2 (11725882_a_at) / Fold change /veh RNFT2 (11725882_a_at) / RFU NR4A2 (11747474_a_at) / Fold change /veh NR4A2 (11747474_a_at) / RFU ABCC12 (11746883_a_at) / Fold change /veh ABCC12 (11746883_a_at) / RFU TMEM136 (11760407_x_at) / Fold change /veh TMEM136 (11760407_x_at) / RFU CLDN22 /// WWC2 (11732394_at) / Fold change /veh CLDN22 /// WWC2 (11732394_at) / RFU HLA-DPB1 (11760878_x_at) / Fold change /veh HLA-DPB1 (11760878_x_at) / RFU SPINT1 (11716480_a_at) / Fold change /veh SPINT1 (11716480_a_at) / RFU GAP43 (11754022_s_at) / Fold change /veh GAP43 (11754022_s_at) / RFU A4GNT (11735810_at) / Fold change /veh A4GNT (11735810_at) / RFU PRB3 (11715151_x_at) / Fold change /veh PRB3 (11715151_x_at) / RFU TUBB4B (11761932_at) / Fold change /veh TUBB4B (11761932_at) / RFU CAPN14 (11732068_a_at) / Fold change /veh CAPN14 (11732068_a_at) / RFU TMCC2 (11721928_a_at) / Fold change /veh TMCC2 (11721928_a_at) / RFU IRGQ (11745062_a_at) / Fold change /veh IRGQ (11745062_a_at) / RFU FAM174B (11720279_a_at) / Fold change /veh FAM174B (11720279_a_at) / RFU TMPRSS4 (11748680_a_at) / Fold change /veh TMPRSS4 (11748680_a_at) / RFU FAM212B (11763350_a_at) / Fold change /veh FAM212B (11763350_a_at) / RFU PLEKHG5 (11743358_a_at) / Fold change /veh PLEKHG5 (11743358_a_at) / RFU ZSCAN30 (11745921_a_at) / Fold change /veh ZSCAN30 (11745921_a_at) / RFU CMKLR1 (11741424_a_at) / Fold change /veh CMKLR1 (11741424_a_at) / RFU LOC101060620 /// MAPK8IP1 (11723275_at) / Fold change /veh LOC101060620 /// MAPK8IP1 (11723275_at) / RFU SPTSSB (11747773_x_at) / Fold change /veh SPTSSB (11747773_x_at) / RFU PRSS12 (11739890_at) / Fold change /veh PRSS12 (11739890_at) / RFU BIN1 (11741810_x_at) / Fold change /veh BIN1 (11741810_x_at) / RFU WNT11 (11732464_a_at) / Fold change /veh WNT11 (11732464_a_at) / RFU C10orf10 (11716521_a_at) / Fold change /veh C10orf10 (11716521_a_at) / RFU C5orf56 (11738089_at) / Fold change /veh C5orf56 (11738089_at) / RFU CYB561 (11721691_x_at) / Fold change /veh CYB561 (11721691_x_at) / RFU ANKRD19P (11752326_a_at) / Fold change /veh ANKRD19P (11752326_a_at) / RFU OR2T12 /// OR2T33 /// OR2T8 (11738714_s_at) / Fold change /veh OR2T12 /// OR2T33 /// OR2T8 (11738714_s_at) / RFU VCAN (11748164_a_at) / Fold change /veh VCAN (11748164_a_at) / RFU JSRP1 (11732532_at) / Fold change /veh JSRP1 (11732532_at) / RFU KRTAP10-11 (11738290_x_at) / Fold change /veh KRTAP10-11 (11738290_x_at) / RFU MYO3A (11730013_a_at) / Fold change /veh MYO3A (11730013_a_at) / RFU EBF3 (11725865_a_at) / Fold change /veh EBF3 (11725865_a_at) / RFU CAMK2N1 (11719241_x_at) / Fold change /veh CAMK2N1 (11719241_x_at) / RFU C5orf56 (11738088_a_at) / Fold change /veh C5orf56 (11738088_a_at) / RFU OLFML3 (11715873_a_at) / Fold change /veh OLFML3 (11715873_a_at) / RFU LOC100653217 /// NTM (11731650_a_at) / Fold change /veh LOC100653217 /// NTM (11731650_a_at) / RFU MAPK11 (11762145_a_at) / Fold change /veh MAPK11 (11762145_a_at) / RFU FIZ1 (11724087_x_at) / Fold change /veh FIZ1 (11724087_x_at) / RFU OASL (11726364_x_at) / Fold change /veh OASL (11726364_x_at) / RFU SOX15 (11748057_x_at) / Fold change /veh SOX15 (11748057_x_at) / RFU CD79A (11719716_a_at) / Fold change /veh CD79A (11719716_a_at) / RFU HIST1H1D (11736915_at) / Fold change /veh HIST1H1D (11736915_at) / RFU CASKIN2 (11723855_a_at) / Fold change /veh CASKIN2 (11723855_a_at) / RFU LOC730098 (11760151_x_at) / Fold change /veh LOC730098 (11760151_x_at) / RFU OR4N2 (11742367_at) / Fold change /veh OR4N2 (11742367_at) / RFU PRRT2 (11749266_a_at) / Fold change /veh PRRT2 (11749266_a_at) / RFU SNX32 (11753110_a_at) / Fold change /veh SNX32 (11753110_a_at) / RFU CDHR5 (11726645_a_at) / Fold change /veh CDHR5 (11726645_a_at) / RFU RCAN1 (11760418_a_at) / Fold change /veh RCAN1 (11760418_a_at) / RFU FAM167A (11723789_a_at) / Fold change /veh FAM167A (11723789_a_at) / RFU FAM26E (11764081_at) / Fold change /veh FAM26E (11764081_at) / RFU ISYNA1 (11749810_s_at) / Fold change /veh ISYNA1 (11749810_s_at) / RFU ACY1 (11761880_at) / Fold change /veh ACY1 (11761880_at) / RFU 11764098_at / Fold change /veh 11764098_at / RFU SAMD14 (11745864_x_at) / Fold change /veh SAMD14 (11745864_x_at) / RFU NPB (11741838_a_at) / Fold change /veh NPB (11741838_a_at) / RFU TMPRSS6 (11731388_a_at) / Fold change /veh TMPRSS6 (11731388_a_at) / RFU KRTAP10-2 (11738614_at) / Fold change /veh KRTAP10-2 (11738614_at) / RFU ARHGAP8 /// PRR5-ARHGAP8 (11727945_x_at) / Fold change /veh ARHGAP8 /// PRR5-ARHGAP8 (11727945_x_at) / RFU KRTAP5-7 /// NADSYN1 (11734609_at) / Fold change /veh KRTAP5-7 /// NADSYN1 (11734609_at) / RFU RASL12 (11751679_a_at) / Fold change /veh RASL12 (11751679_a_at) / RFU CDKN2B (11736163_a_at) / Fold change /veh CDKN2B (11736163_a_at) / RFU PRF1 (11729649_at) / Fold change /veh PRF1 (11729649_at) / RFU, ZNF638 /// ZNF638-IT1 / Fold change vs veh, ZNF638 /// ZNF638-IT1 / RFU, PANK3 / Fold change vs veh, PANK3 / RFU, SH3YL1 / Fold change vs veh, SH3YL1 / RFU, ZEB2 / Fold change vs veh, ZEB2 / RFU, NRIP1 / Fold change vs veh, NRIP1 / RFU, PTTG1IP / Fold change vs veh, PTTG1IP / RFU, CAPN2 / Fold change vs veh, CAPN2 / RFU, MED14 / Fold change vs veh, MED14 / RFU, SNORA58 / Fold change vs veh, SNORA58 / RFU, C1orf63 / Fold change vs veh, C1orf63 / RFU, LRRFIP1 / Fold change vs veh, LRRFIP1 / RFU, NDUFAF7 / Fold change vs veh, NDUFAF7 / RFU, SLC12A2 / Fold change vs veh, SLC12A2 / RFU, IBTK / Fold change vs veh, IBTK / RFU, ESF1 / Fold change vs veh, ESF1 / Fold change vs veh, TMEM50B / RFU, TAOK1 / Fold change vs veh, TAOK1 / RFU, ACBD3 / Fold change vs veh, ACBD3 / RFU, TMA16 / Fold change vs veh, TMA16 / RFU, RWDD3 / Fold change vs veh, RWDD3 / RFU, BCAT1 / Fold change vs veh, BCAT1 / RFU, EDEM3 / Fold change vs veh, EDEM3 / RFU, TMEM33 / Fold change vs veh, TMEM33 / RFU, WDR75 / Fold change vs veh, WDR75 / RFU, AHCTF1 / Fold change vs veh, AHCTF1 / RFU, TFRC / Fold change vs veh, TFRC / RFU, ZDHHC17 / Fold change vs veh, ZDHHC17 / RFU, NOM1 / Fold change vs veh, NOM1 / RFU, ARL8B / Fold change vs veh, ARL8B / RFU, ZBTB11 / Fold change vs veh, ZBTB11 / RFU, TAMM41 / Fold change vs veh, TAMM41 / RFU, KIAA1704 /// LOC100996395 / Fold change vs veh, KIAA1704 /// LOC100996395 / RFU, ING1 / Fold change vs veh, ING1 / RFU, TRMT61B / Fold change vs veh, TRMT61B / RFU, FUBP3 / Fold change vs veh, FUBP3 / RFU, TP53 / Fold change vs veh, TP53 / RFU, TNKS2 / Fold change vs veh, TNKS2 / RFU, ZFP14 / Fold change vs veh, ZFP14 / RFU, ACTR2 / Fold change vs veh, ACTR2 / RFU, PPP3R1 / Fold change vs veh, PPP3R1 / RFU, PIK3R1 / Fold change vs veh, PIK3R1 / RFU, HNRNPA1 / Fold change vs veh, HNRNPA1 / RFU, RNF170 / Fold change vs veh, RNF170 / RFU, ZNF28 / Fold change vs veh, ZNF28 / RFU, RNGTT / Fold change vs veh, RNGTT / RFU, OGT / Fold change vs veh, OGT / RFU, BRD1 / Fold change vs veh, BRD1 / RFU, MARS / Fold change vs veh, MARS / RFU, ZNF655 / Fold change vs veh, ZNF655 / RFU, FAHD1 / Fold change vs veh, FAHD1 / RFU, BDP1 / Fold change vs veh, BDP1 / RFU, LRRCC1 / Fold change vs veh, LRRCC1 / RFU, ARID1A / Fold change vs veh, ARID1A / RFU, ZNF146 / Fold change vs veh, ZNF146 / RFU, ZNF330 / Fold change vs veh, ZNF330 / RFU, GPN3 / Fold change vs veh, GPN3 / RFU, C9orf123 / Fold change vs veh, C9orf123 / RFU, N4BP2L2 / Fold change vs veh, N4BP2L2 / RFU, ARFIP1 / Fold change vs veh, ARFIP1 / RFU, FAM179B / Fold change vs veh, FAM179B / RFU, BCL10 / Fold change vs veh, BCL10 / RFU, UHRF1BP1L / Fold change vs veh, UHRF1BP1L / RFU, BET1 / Fold change vs veh, BET1 / RFU, CNOT2 / Fold change vs veh, CNOT2 / RFU, ZNF268 / Fold change vs veh, ZNF268 / Fold change vs veh, ZNF507 / RFU, DGCR2 / Fold change vs veh, DGCR2 / RFU, WDSUB1 / Fold change vs veh, WDSUB1 / Fold change vs veh, HSP90B1 /// MIR3652 / RFU, ADSS / Fold change vs veh, ADSS / RFU, GK / Fold change vs veh, GK / RFU, ZNF148 / Fold change vs veh, ZNF148 / RFU, TAF9 / Fold change vs veh, TAF9 / RFU, SLC1A5 / Fold change vs veh, SLC1A5 / RFU, SLMO2 / Fold change vs veh, SLMO2 / RFU, ABCC4 / Fold change vs veh, ABCC4 / RFU, LOC101060439 /// RAP1B / Fold change vs veh, LOC101060439 /// RAP1B / RFU, RFX7 / Fold change vs veh, RFX7 / RFU, GTPBP10 / Fold change vs veh, GTPBP10 / RFU, CNEP1R1 / Fold change vs veh, CNEP1R1 / RFU, BIVM-ERCC5 /// ERCC5 / Fold change vs veh, BIVM-ERCC5 /// ERCC5 / RFU, ILF3 / Fold change vs veh, ILF3 / RFU 11762660_at / Fold change /veh 11762660_at / RFU VCAN (11757783_s_at) / Fold change /veh VCAN (11757783_s_at) / RFU DDX43 (11728927_at) / Fold change /veh DDX43 (11728927_at) / RFU KRT8 (11758188_x_at) / Fold change /veh KRT8 (11758188_x_at) / RFU NKD1 (11759106_at) / Fold change /veh NKD1 (11759106_at) / RFU SRD5A1 (11742802_a_at) / Fold change /veh SRD5A1 (11742802_a_at) / RFU TPSAB1 /// TPSB2 (11721975_s_at) / Fold change /veh TPSAB1 /// TPSB2 (11721975_s_at) / RFU GSTM3 (11746129_a_at) / Fold change /veh GSTM3 (11746129_a_at) / RFU IL23R (11737362_x_at) / Fold change /veh IL23R (11737362_x_at) / RFU TMEM51 (11727254_a_at) / Fold change /veh TMEM51 (11727254_a_at) / RFU PIWIL2 (11732686_x_at) / Fold change /veh PIWIL2 (11732686_x_at) / RFU ORM1 (11744905_x_at) / Fold change /veh ORM1 (11744905_x_at) / RFU CCDC152 (11743942_at) / Fold change /veh CCDC152 (11743942_at) / RFU ECM1 (11717891_a_at) / Fold change /veh ECM1 (11717891_a_at) / RFU IL23R (11748794_a_at) / Fold change /veh IL23R (11748794_a_at) / RFU TNFAIP8L3 (11732012_x_at) / Fold change /veh TNFAIP8L3 (11732012_x_at) / RFU MBOAT4 (11741988_at) / Fold change /veh MBOAT4 (11741988_at) / RFU 11764193_at / Fold change /veh 11764193_at / RFU TMEM53 (11763286_at) / Fold change /veh TMEM53 (11763286_at) / RFU MAGEB2 (11727129_at) / Fold change /veh MAGEB2 (11727129_at) / RFU TMEM200A (11744735_a_at) / Fold change /veh TMEM200A (11744735_a_at) / RFU CCDC152 (11751479_a_at) / Fold change /veh CCDC152 (11751479_a_at) / RFU FAM211A (11726209_a_at) / Fold change /veh FAM211A (11726209_a_at) / RFU RGS16 (11746705_a_at) / Fold change /veh RGS16 (11746705_a_at) / RFU VCAN (11755009_s_at) / Fold change /veh VCAN (11755009_s_at) / RFU RHOB (11743442_s_at) / Fold change /veh RHOB (11743442_s_at) / RFU RGS16 (11720943_a_at) / Fold change /veh RGS16 (11720943_a_at) / RFU RGS16 (11720944_at) / Fold change /veh RGS16 (11720944_at) / RFU, VPS4B / Fold change vs veh, VPS4B / RFU, CREB1 / Fold change vs veh, CREB1 / RFU, DNAJC13 / Fold change vs veh, DNAJC13 / RFU, GNAQ / Fold change vs veh, GNAQ / RFU, CDK5R1 / Fold change vs veh, CDK5R1 / RFU, ZRANB3 / Fold change vs veh, ZRANB3 / RFU, CUL4A / Fold change vs veh, CUL4A / RFU, CCNY / Fold change vs veh, CCNY / RFU, UFL1 / Fold change vs veh, UFL1 / RFU, COG3 / Fold change vs veh, COG3 / RFU, DIAPH2 / Fold change vs veh, DIAPH2 / RFU, SKA2 / Fold change vs veh, SKA2 / RFU, AFF3 / Fold change vs veh, AFF3 / RFU, LMF1 / Fold change vs veh, LMF1 / RFU, IPO11 / Fold change vs veh, IPO11 / RFU, DFFB / Fold change vs veh, DFFB / RFU, FOXP1 / Fold change vs veh, FOXP1 / RFU, CARD8 / Fold change vs veh, CARD8 / RFU, STRN3 / Fold change vs veh, STRN3 / RFU, ADK / Fold change vs veh, ADK / RFU, RASSF2 / Fold change vs veh, RASSF2 / RFU, WIPF1 / Fold change vs veh, WIPF1 / RFU, LARP1B / Fold change vs veh, LARP1B / RFU, RASA1 / Fold change vs veh, RASA1 / RFU, RB1 / Fold change vs veh, RB1 / RFU, PPFIA1 / Fold change vs veh, PPFIA1 / RFU, MAT2A / Fold change vs veh, MAT2A / RFU, CCT5 / Fold change vs veh, CCT5 / RFU, WDR92 / Fold change vs veh, WDR92 / RFU, CUX1 / Fold change vs veh, CUX1 / RFU, TTC7A / Fold change vs veh, TTC7A / RFU, TMEM135 / Fold change vs veh, TMEM135 / RFU, DEPTOR / Fold change vs veh, DEPTOR / RFU, CPM / Fold change vs veh, CPM / RFU, DNAJB6 / Fold change vs veh, DNAJB6 / RFU, CACNA2D3 / Fold change vs veh, CACNA2D3 / RFU, DTX4 / Fold change vs veh, DTX4 / RFU, TFCP2 / Fold change vs veh, TFCP2 / RFU, GMCL1 /// GMCL1P1 / Fold change vs veh, GMCL1 /// GMCL1P1 / RFU, AEBP2 / Fold change vs veh, AEBP2 / RFU, SNHG1 /// SNORD22 /// SNORD25 /// SNORD26 /// SNORD27 /// SNORD28 /// SNORD29 /// SNORD31 / Fold change vs veh, SNHG1 /// SNORD22 /// SNORD25 /// SNORD26 /// SNORD27 /// SNORD28 /// SNORD29 /// SNORD31 / Fold change (Aza/veh), C12orf56 (ProbeSet 11735607_a_at) / Fold change (ACY-1035/veh), C12orf56 (ProbeSet 11735607_a_at) / Fold change (Aza/veh), FGFR1OP (ProbeSet 11751329_s_at) / Fold change (ACY-1035/veh), FGFR1OP (ProbeSet 11751329_s_at) / Fold change (Aza/veh), VPS36 (ProbeSet 11739960_a_at) / Fold change (ACY-1035/veh), VPS36 (ProbeSet 11739960_a_at) / RFU SYPL1 (11715823_x_at) / Fold change /veh SYPL1 (11715823_x_at) / RFU IGFBP7 (11715501_s_at) / Fold change /veh IGFBP7 (11715501_s_at) / RFU REEP3 (11722064_at) / Fold change /veh REEP3 (11722064_at) / RFU IGLL1 (11728026_x_at) / Fold change /veh IGLL1 (11728026_x_at): dose or concentration left out as unconfirmed. The conditions noted are these: MV-4-11 cells, 48 hours.

On to `Nc1ncn([C@@H]2O[C@H](CO)[C@@H](O)[C@H]2O)c(=O)n1` [azacitidine], for which the “RFU SYPL1 (11715823_x_at)” value is on record as 860.69 RFU.
